# Assay results published in US20250204528A1, “USE OF 2-AMINO-3-INDOLYL BUTYRIC ACID OR 3-METHYLPYRROLIDINE-2-CARBOXYLIC ACID AS PLANT IMMUNITY ELICITOR” (NANJING TIANNONG BIOTECHNOLOGY CO., LTD, priority 2021, published 2025).
# Values joined by “and” are separate entries in the source; they are usually repeats but may differ in a detail not shown here. Equal entries are not always repeated.
# Assays:
# Type in all cases: in vivo
# [1] = tested on: Pseudomonas syringae PstDC3000; assay: Induction of Arabidopsis thaliana against infection by Pseudomonas syringae; details: for Disease index reduced by / Number of the bacteria in each milligram of the leaves reduced by: compared with blank control; for CFU (mg), number of bacteria in each milligram of the leaves / Disease index: 3 d after inoculation
# Description: 2-amino-3-indolyl butyric acid was dissolved in sterile water and gradiently diluted with sterile water to obtain solutions of 100 nm, 1,000 nm and 10,000 nm. A blank control was additionally set. Meanwhile, 0.02% Tween 20 was added as a surfactant. Pseudomonas syringae PstDC3000 was coated on an LB plate and cultured at 28° C. for 48 h; monoclonal colonies were selected, inoculated into a 50-mL centrifuge tube containing 2 mL of a culture medium, and cultured on a shaking table at 28° C. and 250 rpm, the change of an OD600 value of the bacterial liquid was monitored every 1-2 h, and the culture of the bacteria was stopped before the OD600 value reached 0.8; 1 mL of the bacterial liquid was transferred to a sterile 1.5-mL centrifuge tube for centrifuging at 8,000 rpm for 2 min and the precipitate was collected; the supernatant was removed, the precipitate was washed 3 times with 10 mM of magnesium chloride and centrifuged, and finally the PstDC3000 was resuspended in 10 mM of magnesium chloride enable the OD600 value to reach […] for late use. Arabidopsis thaliana seeds were soaked in 75% alcohol for 3 min, washed with sterile water for 4 times and seeded in a culture dish containing ½ MS culture medium with 12 seeds sown on each culture dish. The ½ MS culture dish carrying the seeds were vernalized at 4° C. for 3 d to break dormancy and then placed in a culture room at 22° C. and the illumination intensity of 100 μEm^−2s^−1 (16 h light/8 h dark). When the seedlings grew for 2 weeks, 2-amino-3-indolyl butyric acid at different concentrations were slowly poured into the culture dish until the whole Arabidopsis thaliana seedlings were submerged for 2-3 min, then the treatment solution was completely poured from the culture dish, and the treatment was performed once every other 24 h for a total of 2 times. The PstDC3000 suspension (OD600=0.01) was inoculated to the Arabidopsis thaliana leaves by using the same submerging method 24 h after the 2nd treatment, and then the culture dish was sealed by a medical breathable adhesive plaster after the inoculation and placed in the culture room for continuous culture. After 3 d, the number of the bacteria subjected to different treatments was determined, the disease condition of the Arabidopsis thaliana was observed, and the disease indexes were calculated by using the same calculation formula as that in example 2.
# Grading standard of diseases caused by PstDC3000 (taking leaves as units): • grade 0: the leaf surfaces were free of disease spots; • grade 1: the area of the disease spots accounted for 0%-10% of that of the whole leaves; • grade 2: the area of the disease spots accounted for 10%-25% of that of the whole leaves; • grade 3: the area of the disease spots accounted for 25%-50% of that of the whole leaves; • grade 4: the area of the disease spots accounted for 50%-75% of that of the whole leaves; and • grade 5: the area of the disease spots accounted for 75%-100% of that of the whole leaves.
# [2] = tested on: tea trees (Baiye 1 cutting seedlings); assay: Tea tree under low temperature stress; details: for Cold damage index (%): 24 h at −4° C., recovery 3 d; for PIABS: after 24 h at −4° C.; for Cold damage index reduced by / PIABS of the tea leaves improved by: vs control
# Description: The test tea trees were Baiye 1 cutting seedlings.
# The tea seedlings with consistent growth vigor were selected to be transplanted into a plastic pot with the diameter of 18 cm and placed in a greenhouse at 25° C. and with the humidity of 60%-70% to be adapted for growing for about one week for the experiment. Concentrations at 0 nm, 1 nm, 10 nm, 100 nm and 1,000 nm were set in the experiment. Meanwhile, 0.02% Tween 20 was added as a surfactant. The spraying treatment was the same as that of the ryegrass in example 1. A low temperature stress was performed for 24 h at −4° C. The tea seedlings after the stress was finished were taken out and subjected to a dark treatment at normal temperature for 30 min. The chlorophyll fluorescences of leaves at the tops of the tea seedlings were measured by using the plant efficiency Handy-PEA. Then the tea seedlings were placed in the greenhouse at 25° C. for recovery for 3 d. The cold damage conditions were observed, counted and graded. The cold damage index counting and grading standard was shown in table 13 and a calculation formula was as follows.
# "Sikang 1" cotton = assay: Cotton under salt stress (100 mM NaCl); details: 100 mM NaCl three days; for Mortality (%): cotton plants
# Description: An experimental material was “Sikang 1” cotton which was hydroponic in a 500-mL plastic cup, and a ½ Hoagland nutrient solution was replaced every other two days. When the cotton seedling grew until the second true leaves were completely unfolded, a 2-amino-3-indolyl butyric acid solution was sprayed on the leaf surfaces. Concentrations at 0 nm, 1 nm, 10 nm, 100 nm and 1,000 nm were set in the experiment. Meanwhile, 0.02% Tween 20 was added as a surfactant. The solution was sprayed every 24 h for 2 times and NaCl was added into a ½ Hoagland nutrient solution the next day after the treatment to make the final concentration of 100 mM to perform a salt stress treatment. Each treatment was performed in three replicates. A rehydration treatment was performed after three days of the salt stress. The salt damage symptoms of the cotton were observed and a salt damage index was calculated by using a calculation formula as follows.
# [3] = treatment concentration 1,000 nm
# [4] = treatment concentration 10,000 nm
Compound,Disease index reduced by ([1]; 100 nm),Number of the bacteria in each milligram of the leaves reduced by ([1]; 100 nm),"Disease index reduced by ([1]; 1,000 nm)","Number of the bacteria in each milligram of the leaves reduced by ([1]; 1,000 nm)","Disease index reduced by ([1]; 10,000 nm)","Number of the bacteria in each milligram of the leaves reduced by ([1]; 10,000 nm)","CFU (mg), number of bacteria in each milligram of the leaves ([1]; treatment concentration 100 nm)",Disease index ([1]; treatment concentration 100 nm),"CFU (mg), number of bacteria in each milligram of the leaves [1, 3]","Disease index [1, 3]","CFU (mg), number of bacteria in each milligram of the leaves [1, 4]",Cold damage index (%) ([2]; 1 nm),PIABS ([2]; 1 nm),Cold damage index (%) ([2]; 10 nm),PIABS ([2]; 10 nm),Cold damage index (%) ([2]; 100 nm),PIABS ([2]; 100 nm),"Cold damage index (%) ([2]; 1,000 nm)","PIABS ([2]; 1,000 nm)","Cold damage index reduced by ([2]; 1,000 nm)",also measured
CC(c1c[nH]c2ccccc12)C(N)C(=O)O (stereo not shown),51.25%,76.75%,53.92%,80.97%,64.42%,85.039% and 85.03%,7.44 × 10^5 CFU (mg),40.53 ± 1.95b,6.09 × 10^5 CFU (mg),38.31 ± 1.80b,4.79×10^5 CFU (mg),52%,26.3 ± 0.04,45%,30.10 ± 1.70c,35%,36.51 ± 3.14ab,28%,39.36 ± 2.15a,40%,"PIABS of the tea leaves improved by ([2]; 1,000 nm): 52%; Salt damage index (%) (""Sikang 1"" cotton; 1 nm): 63%; Mortality (%) (""Sikang 1"" cotton; 1 nm): 45%; Salt damage index (%) (""Sikang 1"" cotton; 10 nm): 57%; Mortality (%) (""Sikang 1"" cotton; 10 nm): 43%; Salt damage index (%) (""Sikang 1"" cotton; 100 nm): 53%; Mortality (%) (""Sikang 1"" cotton; 100 nm): 33%; Salt damage index (%) (""Sikang 1"" cotton; 1,000 nm): 44%; Mortality (%) (""Sikang 1"" cotton; 1,000 nm): 27%"
CC1CCNC1C(=O)O (stereo not shown) [3-methylpyrrolidine-2-carboxylic acid],41.13%,70.78%,52.47%,80.90%,72.69%,94.92% and 94.90%,9.41 × 10^5 CFU (mg),50.14 ± 1.54b,6.15 × 10^5 CFU (mg),40.48 ± 0.17c,1.64×10^5 CFU (mg),47%,23.01 ± 0.02,43%,29.65 ± 1.81c,34%,35.01 ± 0.27b,27%,41.07 ± 0.31a,48%,"PIABS of the tea leaves improved by ([2]; 1,000 nm): 138%; Salt damage index (%) (""Sikang 1"" cotton; 1 nm): 67%; Mortality (%) (""Sikang 1"" cotton; 1 nm): 47%; Salt damage index (%) (""Sikang 1"" cotton; 10 nm): 54%; Mortality (%) (""Sikang 1"" cotton; 10 nm): 42%; Salt damage index (%) (""Sikang 1"" cotton; 100 nm): 49%; Mortality (%) (""Sikang 1"" cotton; 100 nm): 28%; Salt damage index (%) (""Sikang 1"" cotton; 1,000 nm): 39%; Mortality (%) (""Sikang 1"" cotton; 1,000 nm): 24%"
